doi:10.1101/2025.01.28.635346v1 (bioRxiv, 2025)
Bridge positions count the residues as written; N and C are the ends. Side chains are listed from the residue outwards. Peptide text beside a SMILES is read from it. * marks the point of attachment. Butanoyl(4-(4-I-phenyl)) = O=C(CCCc1ccc(I)cc1)*; PEG2 = NCCOCCOCCC(=O)O

Assay: Tissue distribution in female Balb/c mice
Assay type: in vivo, mouse
Details: for Brain concentration / Colon concentration / Kidneys concentration / Liver concentration / Mammary concentration / Ovaries concentration / Plasma Concentration / Lungs concentration: Balb/c mice
[1] = 3 hr, Mouse 1 (individual animal)
[2] = 3 hr, Mouse 2 (individual animal)
[3] = 3 hr, Mouse 3 (individual animal)
[4] = 8 hr, Mouse 1 (individual animal)
[5] = 8 hr, Mouse 2 (individual animal)
[6] = 8 hr, Mouse 3 (individual animal)
[7] = female, Balb/c, mouse, brain, ip, 30 mg/kg
[8] = female, Balb/c, mouse, breast tissue including mammary gland, ip, 30 mg/kg
[9] = female, Balb/c, mouse, colon, ip, 30 mg/kg
[10] = female, Balb/c, mouse, kidney, ip, 30 mg/kg
[11] = female, Balb/c, mouse, kidneys, ip, 30 mg/kg
[12] = female, Balb/c, mouse, liver, ip, 30 mg/kg
[13] = female, Balb/c, mouse, lungs, ip, 30 mg/kg
[14] = female, Balb/c, mouse, ovaries, ip, 30 mg/kg
[15] = female, Balb/c, mouse, plasma, ip, 30 mg/kg

CC[C@H](C)[C@H](NC(=O)[C@H](CC(C)C)NC(=O)[C@H](CC(=O)O)NC(=O)CNC(=O)[C@H](CCCNC(=N)N)NC(=O)[C@@H](NC(=O)[C@H](Cc1ccccc1)NC(=O)[C@H](Cc1ccc(O)cc1)NC(=O)[C@@H]1CCC(=O)NCC(=O)NCC(=O)N[C@@H](CCCNC(=N)N)C(=O)NCC(=O)N[C@@H](Cc2c[nH]cn2)C(=O)N[C@@H](C(C)C)C(=O)N2CCC[C@H]2C(=O)N1)C(C)C)C(=O)N[C@@H](CO)C(=O)N[C@@H](Cc1ccccc1)C(=O)N[C@@H](Cc1ccc(O)cc1)C(=O)N[C@@H](CCCCNC(=O)CCOCCOCCNC(=O)CCCc1ccc(I)cc1)C(=O)O [lassotide 47] (GGRGHVPEYFVRGDLISFYK([PEG2-Butanoyl(4-(4-I-phenyl))])-OH; lactam N-8)
Brain concentration [1]: 985 ng/g | Colon concentration [1]: 6100 ng/g | Kidneys concentration [1]: 11600 ng/g | Liver concentration [1]: 4430 ng/g | Mammary concentration [1]: 21700 ng/g | Ovaries concentration [1]: 27800 ng/g | Plasma Concentration [1]: 192 µg/mL | Brain concentration [2]: 968 ng/g | Colon concentration [2]: 6010 ng/g | Kidneys concentration [2]: 11500 ng/g | Liver concentration [2]: 4000 ng/g | Lungs concentration [2]: 32400 ng/g | Mammary concentration [2]: 18900 ng/g | Ovaries concentration [2]: 25700 ng/g | Plasma Concentration [2]: 168 µg/mL | Brain concentration [3]: 756 ng/g | Colon concentration [3]: 4370 ng/g | Kidneys concentration [3]: 9960 ng/g | Liver concentration [3]: 3250 ng/g | Lungs concentration [3]: 36100 ng/g | Mammary concentration [3]: 14800 ng/g | Ovaries concentration [3]: 20800 ng/g | Plasma Concentration [3]: 160 µg/mL | Brain concentration [4]: 974 ng/g | Colon concentration [4]: 2940 ng/g | Kidneys concentration [4]: 12200 ng/g | Liver concentration [4]: 4440 ng/g | Lungs concentration [4]: 41500 ng/g | Mammary concentration [4]: 12200 ng/g | Ovaries concentration [4]: 18700 ng/g | Plasma Concentration [4]: 117 µg/mL | Brain concentration [5]: 617 ng/g | Colon concentration [5]: 2460 ng/g | Kidneys concentration [5]: 8480 ng/g | Liver concentration [5]: 2430 ng/g | Lungs concentration [5]: 31300 ng/g | Mammary concentration [5]: 8100 ng/g | Ovaries concentration [5]: 14700 ng/g | Plasma Concentration [5]: 106 µg/mL | Brain concentration [6]: 406 ng/g | Colon concentration [6]: 2190 ng/g | Kidneys concentration [6]: 6640 ng/g | Liver concentration [6]: 2230 ng/g | Lungs concentration [6]: 16000 ng/g | Mammary concentration [6]: 5390 ng/g | Ovaries concentration [6]: 8870 ng/g | Plasma Concentration [6]: 77 µg/mL | tissue level at time at 3 h [7]: 903 ng/g | tissue level at time at 8 h [7]: 666 ng/g | tissue level at time at 3 h [8]: 18500 ng/g | tissue level at time at 8 h [8]: 8560 ng/g | tissue level at time at 3 h [9]: 5490 ng/g | tissue level at time at 8 h [9]: 2530 ng/g | tissue level at time at 3 h [10]: 11000 ng/g | tissue level at time at 8 h [10]: 9110 ng/g | tissue level at time at 3 h [11]: 11000 ng/g | tissue level at time at 8 h [11]: 9110 ng/g | tissue level at time at 3 h [12]: 3890 ng/g | tissue level at time at 8 h [12]: 3030 ng/g | tissue level at time at 3 h [13]: 57200 ng/g | tissue level at time at 8 h [13]: 29600 ng/g | tissue level at time at 3 h [14]: 24800 ng/g | tissue level at time at 8 h [14]: 14100 ng/g | level at 3 h [15]: 173 µg/mL | level at 8 h [15]: 100 µg/mL
